Measurements reported in patent US12622884B2, “Treatment and prevention of glioblastoma” (CONSEJO SUPERIOR DE INVESTIGACIONES CIENTÍFICAS, priority 2018, dated 2026).
Structures can show the parent of a compound that is named as a salt.

Assays:
β2-adrenergic receptor = conditions: reported in the literature; cited from earlier work
[1] = system: human glioblastoma cell line U-87; test: U-87 cell viability by luminescence (ATP-Glo kit, Promega); assay type: cell-based
Excerpt: FIG. 1.—ICI 118,551 is active as an antitumoral agent decreasing cell viability in the glioblastoma cell line and including the stem cell subpopulation. A: U-87 cell line expresses beta-adrenergic receptors type 2, as shown by confocal microscopy using a monoclonal antibody against human β2 adrenergic receptors (Abcam). B: ICI-118551 decreases viability of the human glioblastoma cell line U-87 either when grown in liquid suspension as oncospheres (gliospheres, stem cells) or in adhesion. Viability was quantified by luminescence using the ATP-Glo kit from Promega. C. β2-adrenergic receptor expression in the human glioblastoma cell line U87 was confirmed by mRNA expression by quantitative PCR in 3D cultures as gliospheres (HUVEC as positive control for β2-adrenergic receptor expression).

U-87 gliospheres = test: Gliosphere formation of U-87 cells under drug treatment; assay type: cell-based, human; conditions: 10 to 100 μM; 72 hours of drug treatment
Procedure: (§1) A: photographs of gliospheres formation after 72 hours of drug treatment. U-87 cells were cultured in medium for gliosphere formation, and either treated with vehicle (control, on the left), or with ICI 118,551, and propranolol at different concentrations from 10 to 100 μM. […] B: Limit dilution assay experiment (ELDA) for oncosphere formation in the presence of different concentrations of ICI 118,551 and propranolol.
(§2) Following the protocol described elsewhere (Diaz-Guerra, E.; Lillo, M. A.; Santamaria, S.; Garcia-Sanz, J. A., Intrinsic cues and hormones control mouse mammary epithelial tree size. FASEB J 2012, 26 (9), 3844-53). Cells were detached from the plate with trypsin (Invitrogen) and plated in complete medium (DMEM/F-12 medium with GlutaMAX) supplemented with B27 (Gibco), 10 ng/ml epidermal growth factor (EGF: Invitrogen) and 10 ng/ml basic fibroblast growth factor (bFGF: Millipore) and they were maintained at 37° C. in 5% CO2. For the ELDA assay cells were dissociated to single cells with trypsin, and seeded at different dilutions (from 100 to 10 for U-87 cells) in sphere complete media following procedures described in Ponti, D et al., (Cancer Res 2005, 65 (13), 5506-11.). The final number of spheres was quantified at 14 days, and the final data and statistical significance was obtained with ELDA software (Hu, Y. et al J Immunol Methods 2009, 347 (1-2), 70-8). […]

U-87 stem cells = test: Extreme limited dilution assay (ELDA) for oncosphere formation; assay type: cell-based, human; conditions: different concentrations; spheres quantified at 14 days
Procedure: as §1, §2

[2] = system: U-87 glioblastoma cell line; test: RT-qPCR of stemness and neural differentiation marker mRNAs in U-87; assay type: cell-based, human; conditions: 48 hours; mRNA by RT-qPCR; dose-dependent
Procedure: FIG. 3.—ICI 118,551 and propranolol decreased stemness biomarker expression in U-87 glioblastoma cell line, but increased the neural differentiation markers. A: The treatment of U-87 with ICI-118,551 and propranolol during 48 hours decreases the expression of stemness associated genes as GD3 synthase, ALDH1, Prominin (CD133), Sox2 and Nanog, whereas B: favors the expression of genes involved in neural cell differentiation (MAP2, GFAP and Nestin). Expression of the corresponding mRNAs was measured by RT-qPCR.
(§3) RNAt was isolated using the Direct-zol RNA MiniPrep Kit (ZymoResearch) from U-87 cells washed with PBS, scraped off the plates and spun down. The pellet was treated with the Tri Reagent and homogenized for 5 min at room temperature before using the MiniPrep Kit as per instructions. The quality and concentration of the RNAt was evaluated by measuring the absorbance at 260, 230 and 280 nm with an ND-1000 spectrophotometer (NanoDrop Technologies, Wilmington, DE, USA). In all cases, the expected 260/280 (˜2.0) and 260/230 (2.0-2.2) ratio values accepted for pure RNA were obtained. To detect the two target miRs, 0.5 μg of the RNAt extracted from the cells was used for hybridization prior to measurement on the dual amperometric platform.
(§4) The qScript microRNA Quantification System (Quanta BioSciences, Inc., Gaithersburg, MD, USA) was used to assess miR-21 and miR-205 expression. In brief, cDNA was synthesized using the qScript microRNA cDNA Synthesis Kit, using 10 ng of initial RNA per PCR reaction. The PCR conditions consisted of an initial activation at 50° C. for 2 min, followed by 40 cycles of 95° C. for 5 s, and 60° C. for 30 s in LightCycler 480 Real-Time PCR System (Roche). The Ct (threshold cycle) value for each primer was normalized to that of RNU6. To assess gene expression, cDNA was synthesized with the transcriptor first strand cDNA synthesis Kit (Roche) under the following PCR conditions: 40 amplification cycles of 95° C. for 10 seconds, 60° C. for 30 seconds and 72° C. for 30 seconds. ACTB was used as a reference gene for normalization and the real-time PCR reactions were performed in triplicate using the PerfeCTa SYBR Green SuperMix (Quanta BioSciences) for miRNAs and the FastStart Universal SYBR Green Master (Roche) for gene expression. The expression level of each gene was determined by the relative standard curve method and the primer sequences for target genes were obtained from the Universal ProbeLibrary Assay Design Center.
However, mRNA from genes involved in neural cell differentiation, such as MAP2, GFAP and nestin (FIG. 3B), were increased in their expression (FIG. 3B). The expression of the corresponding mRNAs was measured by RT-qPCR.

U-87 xenografts = test: Xenograft of U-87 adherent cells in NSG mice; assay type: in vivo; conditions: intraperitoneal; for decrease in the tumor volume: 10 mg/Kg body daily, from tumor volume around 100 mm^3, versus vehicle; for adverse effects: 10 mg/Kg body weight daily, NSG mice
Procedure: (§5) FIG. 4.—ICI 118,551 and Propranolol delay the tumor progression of U-87 xenografts in NSG immunodeppressed mice. A Xenograft using U-87 adherent cells: Mice (n=30) were inoculated with 10^6 cells of U-87 glioblastoma cell line, in the flank, as xenografts. Tumor volume was measured every 3 days. In A, when tumors reached around 100 mm^3 volume, mice were divided in 3 groups (n=9-10). One group was treated daily with 10 mg/Kg body weight with propranolol, another group with the same dose of ICI118,551, and the third group only with vehicle (DMSO). Drugs were intraperitoneally injected. […] B Xenograft using U-87 gliospheres: Mice were inoculated with 10^5 spheroids from the glioblastoma cell line U-87. Mice were divided in 3 groups of 9-10 animals and treated immediately after xenograft for 5 consecutive days with either 3 mg/Kg body weight of propranolol, or ICI 118,551, or only vehicle. The tumors were measured from the moment they were big enough to be sized.
Male 7-8 weeks old NOD scid gamma (NSG) mice were injected in the dorsal flank with a total of either 10^6 cells of U-87 cell line (A), or with 10^5 cells coming from disaggregated gliospheres (B). In the case of A, when tumor size reached 100 mm^3 volume, mice were divided at random in 3 groups, of 9/10 mice each. One group was treated with intraperitoneal daily injection of 10 mg/Kg body of propranolol, other group with the same amount of ICI118,551, and finally, a control group was injected with vehicle. Tumor size was measured by a caliper every 2-3 days. Mice were sacrificed when tumor volume average of the control group reached an end point established on our ethical procedures.
Xenografts were made using U-87 adherent cells: Mice (n=30) were inoculated with 10^6 cells of U-87 glioblastoma cell line, in the flank, as xenografts. Tumor volume was measured every 3 days. When tumors reached around 100 mm^3 volume, mice were divided in 3 groups (n=9-10). One group was treated daily with 10 mg/Kg body weight with propranolol, another group with the same dose of ICI118,551, and the third group only with vehicle (DMSO). Drugs were intraperitoneally injected.

[3] = system: U-87 gliospheres xenografts; test: Xenograft of U-87 gliospheres in NSG mice; assay type: in vivo; conditions: 3 mg/Kg body weight, 5 consecutive days immediately after xenograft, intraperitoneal
Procedure: as §5, with “Mice were divided in 3 groups of 9-10 animals and treated immediately after xenograft for 5 consecutive days with either 3 mg/Kg body weight of propranolol, or ICI 118,551, or only vehicle.” left out
In the case of B, mice were divided in 3 groups of 10 mice, and were treated the first 5 days after xenograft establishment with intraperitoneal injection of propranolol, or ICI118,551 at 3 mg/Kg body, or vehicle. […] From this moment on, tumor size was measured every 2-3 days along 4 weeks, and then the mice were sacrificed.
On the other hand, xenografts using U-87 gliospheres were also used. […] The tumors were measured from the moment they were big enough to be sized.

[4] = system: U87 Glioblastoma Cell Line; test: Expression of miR-21 and its targets PDCD4 and PTEN in U87 cells; assay type: cell-based, human; conditions: 48 hours, increasing amounts
Procedure: FIG. 5. […] Furthermore, ICI increases the expression levels of […] targets such as PDCD4-proapoptotic agents1 (middle)—and PTEN—a glioblastoma suppressor (right).
as §3
as §4, with “ACTB was used as a reference gene for normalization and the real-time PCR reactions were performed in triplicate using the PerfeCTa SYBR Green SuperMix (Quanta BioSciences) for miRNAs and the FastStart Universal SYBR Green Master (Roche) for gene expression.” left out, “Center. […]” for “Center.”

SMILES	β2/β1 selectivity ratio (β2-adrenergic receptor)	differential sensitivity to the drug, adhesion versus 3D gliospheres ([1]; 2D cells in adhesion compared with 3D gliospheres in suspension)	viability of the cancer stem cells ([1]; 3D gliospheres, low μM concentrations)	viability of U-87 ([1]; different doses, grown in liquid suspension as oncospheres (gliospheres) or in adhesion, ATP-Glo luminescence)	inhibition of gliosphere formation (U-87 gliospheres)	ELDA dilution factor compared to control (U-87 stem cells)	expression of neural cell differentiation genes MAP2, GFAP and nestin [2]	expression of stemness associated genes GD3 synthase, ALDH1, prominin (CD 133), Sox2 and nanog [2]	decrease in the tumor volume (U-87 xenografts)	adverse effects (U-87 xenografts)	rate of tumor growth versus vehicle treated mice [3]	expression level of PDCD4 [4]	expression level of PTEN [4]	mRNA-21 expression ([4]; compared with Propranolol)
COc1ccc(OC)c(C(O)C(C)NC(C)(C)C)c1 (racemic) [Butoxamine, DL-erythro-α-(2,5-dimethoxyphenyl)-β-t-butyl aminopropanol hydrochloride]	at least 17													
Cc1ccc(OCC(O)C(C)NC(C)C)c2c1CCC2 [ICI 118,551, erythro-D,L-1(methylinden-4-yloxy)-3-isopropylaminobutan-2-ol]	at least 123	more sensitive the cells grown in adhesion than the 3D gliospheres	strongly affects the viability	decreased the viability	dose-dependent inhibition	increases	increased	decreased significantly	around 30%	no adverse effects observed	significant delay	increases	increases	notably decreased
CC(C)NCC(O)COc1cccc2ccccc12 (stereo not shown) [propranolol]					dose-dependent inhibition	increases	increased	decreased significantly	around 30%	no adverse effects observed	significant delay			
